# Measured values taken from patent US11667631B2, “FGFR4 inhibitor, preparation method therefor, and applications thereof” (Jiangsu Hansoh Pharmaceutical Group Co., Ltd., priority 2016, dated 2023).
# Like-named read-outs stand apart in the source and are kept apart here.
# Columns and labels:
# [1] = Pharmacokinetic (PK) analysis in rats; format: in vivo, Sprague Dawley (SD) rats; details: SD rats, single intragastric administration, 5 mg/kg; for Peak Time tmax: (sampling in hours); for AUC(0-t) / AUC(0-inf) / half-life / MRT / Cmax: Sprague-Dawley, rat, plasma, po; for AUC(0-t): read-out: Area Under Curve AUC0-t; for AUC(0-inf): read-out: Area Under Curve AUC0-∞; for half-life: read-out: Half-Time t1/2 (converted); for MRT: read-out: Mean Residence Time MRT; for Cmax: read-out: Plasma Concentration Cmax
# Experimental: 1) 0.2 ml of intravenous blood was collected and placed in a K2EDTA test tube. The blood was centrifuged at room temperature at the speed of 1000˜3000×g for 5˜20 minutes to isolate the plasma, which was then stored at −80° C.
# 2) 160 μL of acetonitrile was added to 40 μL of plasma sample for precipitation, and then the mixture was centrifuged at the speed of 500˜2000×g for 5˜20 minutes.
# 3) 100 μL of treated solution was taken, and the concentration of the test compound was analyzed by LC/MS/MS. The LC/MS/MS analytical instrument was AB Sciex API 4000. • Liquid chromatography analysis: • Condition of Liquid chromatography: Shimadzu LC-20AD pump • Chromatographic column: phenomenex Gemiu 5 um C18 50×4.6 mm • Mobile phase: Solution A is 0.1% formic acid aqueous solution, and Solution B is acetonitrile • Flow rate: 0.8 mL/min • Elution time: 0-3.5 minutes, the eluent was used as follows: […]
# HuH-7 cells = assay: Inhibition of HuH-7 cell proliferation (CellTiter-Glo); format: cell-based; details: Homo sapiens, Huh-7, 72 h, read-out: HuH-7 IC50
# Experimental: In this experiment, the inhibitory effect of the compounds on HuH-7 cell proliferation was tested by a CellTiter-Glo method, and the half maximal inhibitory concentration (IC50) of the compounds on the activity of cell proliferation was determined.
# 1) A 96-well cell culture plate was seeded with 50˜100 μL of HuH-7 cell suspension at a density of 1˜5×10^4 cells/ml. The culture plate was incubated in an incubator for 16˜24 hours (37° C., 5% CO2).
# (§1) 2) Different concentrations of the test compound in a gradient dilution were added to the cells in the culture plate. The culture plate was incubated in an incubator for 72 hours (37° C., 5% CO2).
# 3) 50˜100 μL of CellTiter-Glo reagent was added to each well. Then, the culture plate was shaken or left to stand for 5˜30 minutes at room temperature.
# (§2) 4) The chemiluminescence signal values of each plate were determined by a microplate reader.
# (§3) 5) The inhibition rates were calculated according to the chemiluminescence signal values.
# (§4) 6) The IC50 of the compound was obtained by curve fitting according to the inhibition rates at different concentrations, and the cell activity of the specific example compounds is shown in Table 2.
# SK-HEP-1 cells = assay: Inhibition of SK-HEP-1 cell proliferation (CellTiter-Glo); format: cell-based; details: read-out: SK-HEP-1 IC50
# Experimental: In this experiment, the inhibitory effect of the compounds on SK-HEP-1 cell proliferation was tested by a CellTiter-Glo method, and the half maximal inhibitory concentration (IC50) of the compounds on the activity of cell proliferation was determined.
# 1) A 96-well cell culture plate was seeded with 50˜100 μL of SK-HEP-1 cell suspension at a density of 1˜5×10^4 cells/ml. The culture plate was incubated in an incubator for 16˜24 hours (37° C., 5% CO2).
# as §1
# (§5) 3) 50˜100 μL of CellTiter-Glo reagent were added to each well. Then, the culture plate was shaken or left to stand for 5˜30 minutes at room temperature.
# as §2, §3, §4
# Hep 3B cells = assay: Inhibition of Hep 3B cell proliferation (CellTiter-Glo); format: cell-based
# Experimental: In this experiment, the inhibitory effect of the compounds on Hep 3B cell proliferation was tested by a CellTiter-Glo method, and the half maximal inhibitory concentration (IC50) of the compounds on the activity of cell proliferation was determined.
# 1) A 96-well cell culture plate was seeded with 50˜100 μL of Hep 3B cell suspension at a density of 1˜5×10^4 cells/ml. The culture plate was incubated in an incubator for 16˜24 hours (37° C., 5% CO2).
# as §1, §5, §2, §3
# FGFR1 kinase = FGFR1 kinase (Homo sapiens (Human), UniProt P11362); assay: Enzymologic experiment of FGFR1 (TR-FRET); format: biochemical; details: FGFR1 kinase activity
# FGFR1 kinase, sequence (P11362 22-822): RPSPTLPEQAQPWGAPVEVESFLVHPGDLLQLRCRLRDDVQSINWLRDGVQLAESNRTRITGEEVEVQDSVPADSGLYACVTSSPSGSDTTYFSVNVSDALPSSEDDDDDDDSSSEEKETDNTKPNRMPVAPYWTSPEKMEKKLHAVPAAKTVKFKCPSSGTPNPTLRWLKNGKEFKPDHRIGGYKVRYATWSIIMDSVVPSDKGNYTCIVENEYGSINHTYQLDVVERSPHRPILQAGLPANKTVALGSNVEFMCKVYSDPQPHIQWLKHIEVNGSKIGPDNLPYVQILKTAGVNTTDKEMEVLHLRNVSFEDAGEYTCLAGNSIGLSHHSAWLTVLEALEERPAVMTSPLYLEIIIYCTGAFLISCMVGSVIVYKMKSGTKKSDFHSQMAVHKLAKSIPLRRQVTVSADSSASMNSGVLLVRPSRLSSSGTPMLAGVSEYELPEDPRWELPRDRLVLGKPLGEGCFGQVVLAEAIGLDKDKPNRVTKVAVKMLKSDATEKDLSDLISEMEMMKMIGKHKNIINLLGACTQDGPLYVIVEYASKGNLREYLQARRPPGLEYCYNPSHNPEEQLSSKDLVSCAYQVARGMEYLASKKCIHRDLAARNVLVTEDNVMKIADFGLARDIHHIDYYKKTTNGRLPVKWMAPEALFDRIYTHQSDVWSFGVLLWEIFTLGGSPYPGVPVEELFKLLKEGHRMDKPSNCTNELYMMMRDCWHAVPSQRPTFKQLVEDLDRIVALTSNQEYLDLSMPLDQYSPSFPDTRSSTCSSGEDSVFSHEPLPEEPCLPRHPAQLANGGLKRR
# Experimental: In this experiment, the inhibitory effect of the compounds on FGFR1 kinase activity was tested by a fluorescence resonance energy transfer (TR-FRET) method, and the half maximal inhibitory concentration (IC50) of the compounds on the FGFR1 kinase activity was determined.
# 1) 1˜5 μL of FGFR1 enzyme solution was added to a 384-well plate, and the final concentration of the enzyme was 0.1˜5 nM.
# 2) 1˜5 μL of diluted solution in gradient of the compound was added.
# 3) 1˜5 μL of a substrate mixture containing substrate polypeptide with a final concentration of 5˜50 nM and ATP with a final concentration of 10˜200 μM was added.
# 4) The mixture was incubated for 0.5˜3 hours at room temperature.
# 5) 10 μL of EDTA and a test solution comprising labeled antibody were added, and the plate was incubated for 1 hour at room temperature.
# 6) The fluorescence signal values of each plate were determined by a microplate reader at 665 nm.
# 7) The inhibition rates were calculated according to the fluorescence signal values.
# 8) The IC50 of the compound was obtained by curve fitting according to the inhibition rates at different concentrations, and the enzymatic activity of the specific example compounds is shown in Table 1.
# [2] = Homo sapiens, Hep3B, 72 h, read-out: Hep 3B IC50, Hep 3B cell proliferation, 72 hours, CellTiter-Glo
SMILES,Peak Time tmax [1],AUC(0-t) [1],AUC(0-inf) [1],half-life [1],MRT [1],Cmax [1],IC50 (HuH-7 cells),"IC50 (SK-HEP-1 cells; Homo sapiens, SK-HEP1, 72 h)",IC50 (Hep 3B cells; [2]),IC50 (FGFR1 kinase),"IC50 (SK-HEP-1 cells; SK-HEP-1 cell proliferation, 72 hours, CellTiter-Glo)","IC50 (Hep 3B cells; read-out: Hep 3B IC50, Hep 3B cell proliferation, 72 hours, CellTiter-Glo)"
"CO[C@@H]1CCCC1Nc1cc(NC(=O)N2CCCc3cc(CN4CCOCC4=O)c(C=O)nc32)ncc1C#N (stereo partly drawn) [Example 1, N-(5-Cyano-4-(((trans)-2-methoxycyclopentyl)amino)pyridin-2-yl)-7-formyl-6-((3-carbonylmorpholino)methyl)-3,4-dihydro-1,8-naphthyridin-1(2H)-carboxamide]",0.5 h,1.01 µg·h/mL,5.04 µg·h/mL,1.1 h,1.1 h,1.14 µg/mL,0.003 µM,> 10 µM,0.0007 µM,,,
"N#Cc1cnc(NC(=O)N2CCCc3cc(CN4CCOCC4=O)c(C=O)nc32)cc1NCCOC1CCCC1 [Example 5, N-(5-Cyano-4-((2-(cyclopentyloxy)ethyl)amino)pyridin-2-yl)-7-formyl-6-((3-carbonylmorpholino)methyl)-3,4-dihydro-1,8-naphthyridin-1(2H)-carboxamide]",,,,,,,0.0349 µM,> 10 µM,0.0082 µM,> 10 µM,,
"COC1(CNc2cc(NC(=O)N3CCCc4cc(CN5CCOCC5=O)c(C=O)nc43)ncc2C#N)CC1 [Example 9, N-(5-Cyano-4-(((1-methoxycyclopropyl)methyl)amino)pyridin-2-yl)-7-formyl-6-((3-carbonylmorpholino)methyl)-3,4-dihydro-1,8-naphthyridin-1(2H)-carboxamide]",,,,,,,0.0091 µM,> 10 µM,0.0014 µM,> 10 µM,,
"CO[C@H]1CCCC1Nc1cc(NC(=O)N2CCCc3cc(CN4CCOCC4=O)c(C=O)nc32)ncc1C#N (stereo partly drawn) [Example 15, N-(5-Cyano-4-(((cis)-2-methoxycyclopentyl)amino)pyridin-2-yl)-7-formyl-6-((3-carbonylmorpholino)methyl)-3,4-dihydro-1,8-naphthyridin-1(2H)-carboxamide]",,,,,,,0.0049 µM,> 10 µM,0.003 µM,> 10 µM,,
"CO[C@@H]1CCN(c2cc(NC(=O)N3CCCc4cc(CN5CCCCOC5=O)c(C=O)nc43)ncc2C#N)C1 [Example 31, (R)-N-(5-Cyano-4-(3-methoxypyrrolidin-1-yl)pyridin-2-yl)-7-formyl-6-((2-carbonyl-1,3-oxazepin-3-yl)methyl)-3,4-dihydro-1,8-naphthyridin-1(2H)-carboxamide]",2 h,1.93 µg·h/mL,1.93 µg·h/mL,1.27 h,4.54 h,3.72 µg/mL,0.0065 µM,> 10 µM,,> 10 µM,,
CO[C@H]1CCN(c2cc(NC(=O)N3CCCc4cc(CN5CCCCOC5=O)c(C=O)nc43)ncc2C#N)C1 [Example 32],,,,,,,0.0058 µM,> 10 µM,0.0031 µM,> 10 µM,,
N#Cc1cnc(NC(=O)N2CCCc3cc(CN4CCCCOC4=O)c(C=O)nc32)cc1N[C@H]1CCOC1 [Example 33],,,,,,,0.0072 µM,> 10 µM,0.0037 µM,> 10 µM,,
"N#Cc1cnc(NC(=O)N2CCCc3cc(CN4CCCCOC4=O)c(C=O)nc32)cc1N[C@@H]1CCOC1 [Example 34, (R)-N-(5-Cyano-4-((tetrahydrofuran-3-yl)amino)pyridin-2-yl)-7-formyl-6-((2-carbonyl-1,3-oxazepin-3-yl)methyl)-3,4-dihydro-1,8-naphthyridin-1(2H)-carboxamide]",,,,,,,0.0049 µM,> 10 µM,0.0023 µM,> 10 µM,,
COC[C@@H](C)Oc1cc(NC(=O)N2CCCc3cc(CN4CCCCOC4=O)c(C=O)nc32)ncc1C#N [Example 35],,,,,,,0.0046 µM,> 10 µM,0.0022 µM,> 10 µM,,
"CO[C@H]1CCN(c2cc(NC(=O)N3CCCc4cc(CN5C(=O)OC[C@@H]5C)c(C=O)nc43)ncc2C#N)C1 [Example 39, N-(5-Cyano-4-((S)-3-methoxypyrrolidin-1-yl)pyridin-2-yl)-7-formyl-6-(((S)-4-methyl-2-carbonyloxazolidin-3-yl)methyl)-3,4-dihydro-1,8-naphthyridin-1(2H)-carboxamide]",,,,,,,0.0346 µM,> 10 µM,0.0393 µM,> 10 µM,,
"CO[C@@H]1CCN(c2cc(NC(=O)N3CCCc4cc(CN5CCCOC5=O)c(C=O)nc43)ncc2C#N)C1 [Example 49, (R)-N-(5-Cyano-4-(3-methoxypyrrolidin-1-yl)pyridin-2-yl)-7-formyl-6-((2-carbonyl-1,3-oxazinan-3-yl)methyl)-3,4-dihydro-1,8-naphthyridin-1(2H)-carboxamide]",,,,,,,0.0113 µM,> 10 µM,0.0044 µM,> 10 µM,,
"CO[C@H]1CCN(c2cc(NC(=O)N3CCCc4cc(CN5CCCOC5=O)c(C=O)nc43)ncc2C#N)C1 [Example 50, (S)-N-(5-Cyano-4-(3-methoxypyrrolidin-1-yl)pyridin-2-yl)-7-formyl-6-((2-carbonyl-1,3-oxazinan-3-yl)methyl)-3,4-dihydro-1,8-naphthyridin-1(2H)-carboxamide]",,,,,,,0.0153 µM,> 10 µM,0.0055 µM,> 10 µM,,
"COC1CN(c2cc(NC(=O)N3CCCc4cc(CN5CCOCC5=O)c(C=O)nc43)ncc2C#N)C1 [Example 53, N-(5-Cyano-4-(3-methoxyazetidin-1-yl)pyridin-2-yl)-7-formyl-6-((3-carbonylmorpholino)methyl)-3,4-dihydro-1,8-naphthyridin-1(2H)-carboxamide]",,,,,,,,> 10 µM,0.0415 µM,> 10 µM,,
"COc1ccncc1Nc1cc(NC(=O)N2CCCc3cc(CN4CCOCC4=O)c(C=O)nc32)ncc1C#N [Example 58, N-(5-Cyano-4-((4-methoxypyridin-3-yl)amino)pyridin-2-yl)-7-formyl-6-((3-carbonylmorpholino)methyl)-3,4-dihydro-1,8-naphthyridin-1(2H)-carboxamide]",,,,,,,0.0207 µM,> 10 µM,0.0069 µM,> 10 µM,,
"CO[C@H]1CCOCC1Oc1cc(NC(=O)N2CCCc3cc(CN4CCOCC4=O)c(C=O)nc32)ncc1C#N (stereo partly drawn) [Example 69, N-(5-Cyano-4-(((3,4)-trans-3-methoxytetrahydro-2H-pyran-4-yl)oxy)pyridin-2-yl) -7-formyl-6-((3-carbonylmorpholino)methyl)-3,4-dihydro-1,8-naphthyridin-1(2H)-carboxamide]",,,,,,,,,,,> 10 µM,0.0226 µM
